{
  "source": "patent US5243042A",
  "about": "“1-thiaguanosine and process for preparing oxanosine and 1-thiaguanosine” (Hoffmann-La Roche Inc., priority 1990, dated 1993)",
  "experiment_in_all_cases": "MIC by agar dilution method, minimal agar medium",
  "format_in_all_cases": "cell-based",
  "key": {"E. coli 257": {"tested_on": "E. coli 257", "details": "Escherichia coli, over-night incubation at 36° C., read-out: MIC (minimum inhibitory concentration)", "method": "(§1) To avoid possible antimetabolite reversal, a minimal agar medium^2 was employed. Inoculum was grown over-night at 36° C. in minimal broth medium and diluted a hundred-fold before use. Agar plates containing a serial dilution of the compounds of formula Ia were inoculated using a Steer's replicator. Approximately 3 μL was applied per spot. MICs were recorded after over-night incubation at 36° C.\n(§2) ^1 Barry, A. L., Procedure for Testing Antimicrobial Agents in Agar Media: Theoretical Considerations, p. 1-26. In Victor Lorian (Ed.), Antibiotics in Laboratory Medicine, 2nd ed. The Williams & Wilkins Co., Baltimore.\n(§3) ^2 Davis, B. D.; Mingioli, E. S. J. BACTERIOL. 1950, 60, 17-28.\n(§4) The minimum inhibitory concentrations of 1-thiaguanosine, the compound of formula Ia, against various bacteria were as follows: […]"}, "E. coli 2721B": {"tested_on": "E. coli 2721B", "details": "Escherichia coli, over-night incubation at 36° C., read-out: MIC (minimum inhibitory concentration)", "method": "as §1, §2, §3, §4"}, "E. coli 94": {"tested_on": "E. coli 94", "details": "Escherichia coli, over-night incubation at 36° C., read-out: MIC (minimum inhibitory concentration)", "method": "as §1, §2, §3, §4"}, "E. coli ATCC 25922": {"tested_on": "E. coli ATCC 25922", "details": "Escherichia coli, ATCC25922, over-night incubation at 36° C., read-out: MIC (minimum inhibitory concentration)", "method": "as §1, §2, §3, §4"}, "E. coli B": {"tested_on": "E. coli B", "details": "Escherichia coli, over-night incubation at 36° C., read-out: MIC (minimum inhibitory concentration)", "method": "as §1, §2, §3, §4"}, "Prov. rettgeri ATTC 9250": {"tested_on": "Prov. rettgeri ATTC 9250", "details": "Providencia rettgeri, ATTC9250, over-night incubation at 36° C., read-out: MIC (minimum inhibitory concentration)", "method": "as §1, §2, §3, §4"}, "[1]": {"tested_on": "S. typhimurium ATTC 13311", "details": "Salmonella enterica, over-night incubation at 36° C., read-out: MIC (minimum inhibitory concentration)", "method": "as §1, §2, §3, §4"}, "S. typhimurium LT-2": {"tested_on": "S. typhimurium LT-2", "details": "Salmonella enterica, over-night incubation at 36° C., read-out: MIC (minimum inhibitory concentration)", "method": "as §1, §2, §3, §4"}},
  "data": [
    {"smiles": "Nc1nc2c(ncn2[C@@H]2O[C@H](CO)[C@@H](O)[C@H]2O)c(=O)s1", "note": "[1-thiaguanosine, 5-amino-3-(β-D-ribofuranosyl)imidazo[4,5-d][1,3]thiazin-7(3H)-one]", "values": [
      {"measurement": "MIC", "setting": "E. coli 257", "value": 16, "unit": "µg/mL"},
      {"measurement": "MIC", "setting": "E. coli 2721B", "value": 128, "unit": "µg/mL"},
      {"measurement": "MIC", "setting": "E. coli 94", "value": 32, "unit": "µg/mL"},
      {"measurement": "MIC", "setting": "E. coli ATCC 25922", "value": 128, "unit": "µg/mL"},
      {"measurement": "MIC", "setting": "E. coli B", "value": 128, "unit": "µg/mL"},
      {"measurement": "MIC", "setting": "Prov. rettgeri ATTC 9250", "value": 4, "unit": "µg/mL"},
      {"measurement": "MIC", "setting": "[1]", "value": 8, "unit": "µg/mL"},
      {"measurement": "MIC", "setting": "S. typhimurium LT-2", "value": 8, "unit": "µg/mL"}
    ]}
  ]
}
